A short description of series [1]: in vitro. In kind it is cell-based. As to conditions: sheep, choroid plexus cells. On the procedure:
(§1) Visna virus is cultivated in low passage cells derived from the choroid plexus (SCP) of a newborn lamb. The choroid plexus is dissected from the newborn lamb, minced and diluted in minimum essential medium (MEM), containing 20% fetal bovine serum (FBS), 1 mM N 2-hydroxyethylpiperazine-N'-2-ethane sulfonic acid (HEPES), 50 μg/ml gentamicin at PH 7.4. After initial cultivation, cells are dispersed by addition of trypsin (0.25%) plus EDTA, split 1:2 and added to MEM+10% FBS, HEPES, gentamicin and reincubated. At approximately passage 4 there are adequate numbers of cells for freezing and storage in liquid nitrogen.
(§2) For antiviral assays, 0.2 ml SCP cells (0.7×10^5 cells/ml) are inoculated into wells of 96 well microtiter plates and incubated for 18-24 hours.
(§3) The medium is decanted from the cells, and drug and virus(~320-50% infectious doses) are added within 15 minutes. Each concentration of drug (serial two-fold or half-log dilutions) are added in 0.1 ml volumes to each of 6 wells. Visna virus is added (0.1 ml) to 4 wells for observation of virus inhibitory activity.
(§4) Virus free test medium is added to two wells (0.1 mL) for observation of drug cytotoxicity. Experimental controls include: cell control (cells with 0.2 mL medium) and virus controls (cells with 0.1 mL virus and 0.1 mL medium). The degree of CPE inhibition and drug cytotoxicity in comparison with virus and cell controls is observed microscopically after 6 days of incubation at 37° C. Fresh medium and drug dilutions are placed on the cells after 3 days of incubation. Virus CPE and drug cytotoxicity are scored on a 0-4 basis with 4 representing total cell destruction. The lowest concentration of drug producing ≥50% inhibition of virus-induced CPE is considered the minimum inhibitory concentration (MIC). The lowest concentration of drug producing a score of […] or visable alteration in cell morphology will be considered the minimum cytotoxic concentration (MCC). Using the observed percent CPE, the MIC will be calculated by linear regression analysis.

Series [2] relates to visna virus. Put plainly: Inhibition of visna virus-induced CPE in sheep choroid plexus (SCP) cells. Type of series: cell-based, strain 1514. As to conditions: Visna-maedi virus, 144 h.
Excerpt: Activity of 9-[(2-hydroxy-1,3,2-dioxophosphorian-5-yl)oxymethyl]guanine P-oxide, sodium salt (2'-NOR-cGMP) against visna virus in sheep choroid plexus cells.
Visna virus, strain 1514, is a lentivirus of the retrovirus family. It was chosen because of its genetic and biologic similarity to the human immunodeficiency viruses (HIV). Since visna virus and the human immunodeficiency virus are closely related retroviruses, activity against the visna virus by a compound is felt to predict activity against the human immunodeficiency virus by the same compound. (See Visna Virus as an In Vitro Model for Human Immunodeficiency Virus and Inhibition by Ribavirin, Phosphonoformate, and 2',3'-Dideoxy-nucleosides, Frank K. B.; McKernan P.A.; Smith R.A.; Smee D.F.; Antimicrobiol Agents and Chemotherapy, Sept. 1987; Vol. 31, No. 9 Pg 1369-1374.) The virus has been cultivated and plaque purified in SCP cells fed with MEM, HEPES, gentamicin and 2% lamb serum.
as §1, §2, §3, §4

Setting [3] is: read-out: MIC (minimum inhibitory concentration), Mean.
[4] abbreviates: MCC (minimum cytotoxic concentration), Range.
Where [5] appears, read: mean of individual values, ≥50% inhibition of virus-induced CPE, 6 days, 37° C, sheep choroid plexus cells, read-out: MIC (minimum inhibitory concentration), Mean.

Values after ≈ are worked out from the molar mass of the structure shown. Counter-ions that a name gives are not always drawn. Like-named read-outs stand apart in the source and are kept apart here.

For the compound `O=C(O)P(=O)(O)O` [Phosphonoformate], the MCC at 144 h in series [1] (range of individual values, 6 days, 37° C, virus free, read-out: MCC (minimum cytotoxic concentration), Range) came to 100 µg/mL; in series [1] (lowest concentration producing a score of ≤1 or visible alteration in cell morphology, 6 days, 37° C, virus free, read-out: MCC (minimum cytotoxic concentration), Individual Values), 100 µg/mL. The MIC in series [2] (setting [3]) stood at 57.4 µg/mL (≈ 456 µM).
Take `Cc1cn([C@H]2C[C@H](N=[N+]=[N-])[C@@H](CO)O2)c(=O)[nH]c1=O` [Azidothymidine]: the MCC at 144 h in series [1] (MCC (minimum cytotoxic concentration), Individual Values) was determined as 40 µg/mL; in series [1] (setting [4]), 40 µg/mL. For the same compound, the MIC came out at 10 µg/mL (≈ 37.4 µM) in series [2] (read-out: MIC (minimum inhibitory concentration), Individual Values) and 10 µg/mL (≈ 37.4 µM) in series [2] (setting [3]).
`Nc1nc2c(ncn2COC2COP(=O)(O)OC2)c(=O)[nH]1` (centres unmarked) [2'-nor-cGMP, 9-[(2-hydroxy-1,3,2-dioxophosphorian-5-yl)oxymethyl]guanine P-oxide, sodium salt]: in series [1] (setting [4]), the MCC at 144 h fell in the range of 32 to 100 µg/mL. For the same compound, in series [2] (setting [5]), the MIC turned out to be 24 µg/mL.
The matching figures for `NC(=O)c1ncn([C@@H]2O[C@H](CO)[C@@H](O)[C@H]2O)n1` [Virazole]: 100 to 320 µg/mL and 175 µg/mL (≈ 718 µM).

For the origin of these results see US4966895A, “Cyclic monophosphates of purine and pyrimidine acyclonucleosides as anti-retroviral agents” (Merck & Co. Inc., priority 1989, dated 1990).
